Data taken from BindingDB's records for patent US20230348421 (Geneora Pharma (Shijiazhuang) Co., 2023).

Biological target: hERG (Potassium voltage-gated channel subfamily H member 2) (Homo sapiens, UniProt Q12809)
Test: Electrophysiological Assay
Conditions: CHO cells stably expressing hERG potassium channels
Method: CHO (Chinese Hamster Ovary) cells stably expressing hERG potassium channels were taken, and hERG potassium channel currents were recorded at room temperature by means of a whole-cell patch-clamp technique. A glass microelectrode was formed by pulling a glass electrode blank (BF150-86-10, Sutter) with a glass microelectrode puller. The tip resistance was about 2-5 MΩ after perfusion of a pippette solution. The glass microelectrode could be connected to a patch clamp amplifier by inserting the glass microelectrode into an amplifier probe. Clamping voltages and data recording were controlled and recorded by a computer with pClamp 10 software, with a sampling frequency of 10 kHz and a filtering frequency of 2 kHz. After the whole-cell recording was obtained, the cells were clamped at −80 mV, and the step voltage evoking hERG potassium current (I hERG) was changed from −80 mV to +20 mV by giving a 2 s depolarization voltage and then repolarized to −50 mV for 1 s, and returned to −80 mV. Such voltage stimulation was given every 10 s, and the administration process was started after it was determined that the hERG potassium currents were stable (1 min). The compound at each test concentration was given at least 1 min, and at least 2 cells (n≥2) were tested for each concentration.

Chain of hERG (Potassium voltage-gated channel subfamily H member 2) (Q12809 whole entry): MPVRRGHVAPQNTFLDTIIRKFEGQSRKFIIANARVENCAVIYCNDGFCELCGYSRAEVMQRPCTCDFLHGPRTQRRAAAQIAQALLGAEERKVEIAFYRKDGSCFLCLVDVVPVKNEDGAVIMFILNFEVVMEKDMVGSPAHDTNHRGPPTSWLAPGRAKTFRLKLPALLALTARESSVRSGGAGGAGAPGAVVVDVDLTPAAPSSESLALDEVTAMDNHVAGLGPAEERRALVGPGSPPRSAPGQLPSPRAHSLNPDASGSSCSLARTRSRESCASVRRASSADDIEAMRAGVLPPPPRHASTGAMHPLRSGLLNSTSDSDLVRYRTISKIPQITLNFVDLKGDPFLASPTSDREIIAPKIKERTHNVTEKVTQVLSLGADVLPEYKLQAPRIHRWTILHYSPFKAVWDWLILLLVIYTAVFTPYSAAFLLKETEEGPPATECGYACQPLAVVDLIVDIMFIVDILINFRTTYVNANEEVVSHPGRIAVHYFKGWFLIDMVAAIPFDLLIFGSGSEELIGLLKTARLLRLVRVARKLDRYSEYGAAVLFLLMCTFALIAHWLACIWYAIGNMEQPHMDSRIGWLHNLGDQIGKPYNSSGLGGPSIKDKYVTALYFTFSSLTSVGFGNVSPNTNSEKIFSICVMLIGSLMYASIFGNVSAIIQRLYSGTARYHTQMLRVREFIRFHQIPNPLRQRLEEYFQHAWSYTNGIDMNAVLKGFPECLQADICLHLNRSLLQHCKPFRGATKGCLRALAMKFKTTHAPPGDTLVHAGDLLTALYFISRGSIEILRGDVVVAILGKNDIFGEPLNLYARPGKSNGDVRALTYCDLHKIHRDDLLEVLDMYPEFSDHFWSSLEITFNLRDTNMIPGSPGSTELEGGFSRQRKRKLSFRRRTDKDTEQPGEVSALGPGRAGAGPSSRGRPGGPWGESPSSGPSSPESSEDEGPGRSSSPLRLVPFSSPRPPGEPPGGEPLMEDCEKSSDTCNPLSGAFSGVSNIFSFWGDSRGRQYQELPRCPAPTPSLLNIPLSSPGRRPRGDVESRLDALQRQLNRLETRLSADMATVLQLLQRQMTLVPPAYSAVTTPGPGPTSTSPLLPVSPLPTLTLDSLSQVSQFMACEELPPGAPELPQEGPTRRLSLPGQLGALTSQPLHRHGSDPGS

Structure (SMILES): CN1CCC(N(Cc2ccc(F)cn2)C(=O)NCc2ccc3c(c2)CC(C(F)(F)F)O3)CC1 (stereo unspecified) [US20230348421, Compound 89]
- IC50: 2.05 µM
